Assay results published in patent publication US9556130B2, “4-oxo-3,4-dihydro-1,2,3-benzotriazine modulators of GPR139” (Takeda Pharmaceutical Company Limited, priority 2014, dated 2017).

Test system: c-Fos immunoreactivity in the dorsal medial habenula
Test: cFos Staining
Type: in vivo, C57/B16 mice
Settings: oral
Procedure: Methods: After dosing C57/B16 mice for various time courses their brains were prepared for immunohistochemistry. […] Brains are extracted and placed in 4% paraformaldehyde for 3 hours, changed into 20% sucrose/PBS solution to avoid freezing artifacts, and frozen with dry ice. Frozen brain sections are obtained with sliding microtome at 20 um and washed in PBS (2 times for 10 minutes each). Endogenous peroxidase enzyme is blocked with 0.3% H2O2 solution in water for 10 minutes. Sections are rinsed in PBS (3 times for 10 minutes each) and incubated in primary antibody against cFos (Santa Cruz SC-42) at a dilution of 1:10,000 at 4° C. overnight in PBS+0.3% triton and 1% bovine serum albumin. Sections are subsequently rinsed in PBS (3 times for 10 minutes each) and incubated in secondary antibody: goat against rabbit-biotinylated antibody, at a dilution of 1:200 for 1 hour at room temperature in PBS+0.3% triton and 1% bovine serum albumin. Sections are rinsed in PBS (3 times for 10 minutes each) and incubated in ABC mix in PBS; ABC Elite Kit from Vector (PK-1000) for 1 hour at room temperature. Next, the sections are rinsed in PBS (3 times for 10 minutes each) and then in 0.1 M sodium acetate (3 times for 10 minutes each). Reaction is visualized with standard diaminobenzydine procedures: 50 mL of 0.1M sodium acetate containing 20 mg ammonium chloride, 20 mg, diaminobenzydine, 80 mg glucose and 10 mL of glucose oxidase. React for 10 minutes then the reaction is stopped with PBS rinses (3 times for 10 minutes each). cFos cells are then counted.

## C[C@H](NC(=O)Cn1nnc2ccccc2c1=O)c1ccc(OC(F)(F)F)cc1 [Example 2, (S)-2-(4-oxobenzo[d][1,2,3]triazin-3(4H)-yl)-N-(1-(4-(trifluoromethoxy)phenyl)ethyl)acetamide]
Desensitization experiment, 0.1 mg/kg 1d
  cFos cell count, Mean: 1486
Desensitization experiment, 0.1 mg/kg 5d
  cFos cell count, Mean: 1928
Desensitization experiment, 0.1 mg/kg 10d
  cFos cell count, Mean: 1684
Dose response curve experiment, 0.01 mg/kg
  cFos cell count, Mean: 1376
Dose response curve experiment, 0.03 mg/kg
  cFos cell count, Mean: 986.3
Dose response curve experiment, 0.1 mg/kg
  cFos cell count, Mean: 1381
Dose response curve experiment, 0.3 mg/kg
  cFos cell count, Mean: 1408
Dose response curve experiment, 1 mg/kg
  cFos cell count, Mean: 1368
Time course experiment, 0.1 mg/kg 1 hr
  cFos cell count, Mean: 787.7
Time course experiment, 0.3 mg/kg 1 hr
  cFos cell count, Mean: 1343
Time course experiment, 0.3 mg/kg 2 hr
  cFos cell count, Mean: 1400
Time course experiment, 0.3 mg/kg 4 hr
  cFos cell count, Mean: 2170
Time course experiment, 3 mg/kg 1 hr
  cFos cell count, Mean: 2365

## COc1cccc2nnn(CC(=O)N[C@@H](C)c3ccc(C)cc3)c(=O)c12 [Example 3, (S)-2-(5-methoxy-4-oxobenzo[d][1,2,3]triazin-3(4H)-yl)-N-(1-p-tolylethyl)acetamide]
dose-response and time course experiment, 0.03 mg/kg 1 hr
  cFos cell count, Mean: 1628
dose-response and time course experiment, 0.1 mg/kg 1 hr
  cFos cell count, Mean: 2243
dose-response and time course experiment, 0.3 mg/kg 1 hr
  cFos cell count, Mean: 2458
dose-response and time course experiment, 0.3 mg/kg 2 hr
  cFos cell count, Mean: 2777
dose-response and time course experiment, 0.3 mg/kg 4 hr
  cFos cell count, Mean: 865
dose-response and time course experiment, 3 mg/kg 1 hr
  cFos cell count, Mean: 2023
